Source: patent publication US20100143960A1, “CYANINE DERIVATIVES, FLUORESCENT CONJUGATES CONTAINING SAME AND USE THEREOF” (CIS BIO INTERNATIONAL, priority 2007, published 2010)
Blank lines part the entries; values can stand above or below the compound they belong to.

How the values were obtained:
[1] = aqueous medium, nonsulfonated; cited from earlier work
[2] = test system: fusion protein GST-ST26-Flag in CHO-K1 cells; assay: Labeling of an intracellular protein in intact living cells, detected by HTRF measurement; type: cell-based; settings: 5 μM substrate, 3 h at 20° C.
From the text: This example is targeted at showing that the compounds according to the invention comprising a phosphonate ester and conjugated to a substrate (benzylguanine, BG) for a “snaptag” suicide enzyme (ST26) are capable of passing through the cell membrane and of labeling a fusion protein expressed by the cell and comprising the snaptag enzyme ([…]), in contrast to the use of a cyanine not comprising phosphonate esters (DY-647).
The HTRF technique is used to test the intracellular labeling of a protein by the cyanine derivatives according to the invention, on living cells, using the recombinant protein GST-ST26-Flag produced by the cells and labeled indirectly via an anti-GST antibody conjugated with a europium trisbipyridine cryptate (anti-GST-EuTBP).
After culturing, CHO-K1 cells are transfected in the presence of lipofectamine 2000 (0.8 μl per 50 μl of transfection solution, Lipofectamine™ Transfection Reagent, Invitrogen Inc., Carlsbad, Calif.) at the rate of 50 000 cells per well in a black 96-well microplate. The transfected cells are subsequently incubated for 24 h at 37° C., 5% CO2. […]
The fluorescence at 665 nm is measured on an HTRF reader (RUBYstar, BMG Labtechnologies). […]

[3] = test system: stable CHO line expressing SnapTag in the nucleus; assay: Test of cell permeability of benzylguanine conjugates (fluorescence microscopy); type: cell-based; settings: 5 μM in culture medium, one hour contact, washing, additional hour, microscopic analysis, FIG. 1
Protocol: The cells used result from a stable CHO line expressing SnapTag in the nucleus by virtue of the NLS sequence. The compounds are added to the culture medium (DMEM medium supplemented with 10% of inactivated SVF, 30 min at 60° C.) at a concentration of 5 μM and left in contact with the cells for one hour. After the incubation, three washing operations are carried out with culture medium. An additional hour of incubation solely in the medium is carried out in order to make possible the labeling of the SnapTag by the substrate. Staining of the […] is subsequently carried out with DAPI before the microscopic analysis.
The above images are represented in FIG. 1.

[4] = Comparison of quantum yields / fluorescence spectrum of cyanine derivatives carrying phosphonate groups; type: physicochemical
Protocol: Fluorescence spectrum: Measurement on a Perkin-Elmer LS50 device, the samples were diluted in phosphate buffer 0.1M pH 7 containing 0.1% BSA (maximum absorbance=0.04 at the excitation wavelength). Excitation: 600 nm (10 nm). Emission (max)=670.5 nm (quantum yield=13%).
The phosphate/phosphonate ester functional groups of the cyanine derivatives according to the invention are hydrolyzed in the cell by cell enzymes to give phosphate/phosphonate functional groups. The quantum yields of the cyanine derivatives carrying phosphonate groups, thus corresponding to the compounds according to the invention as present in the cell after hydrolysis of the ester functional groups, were measured in order to determine if the position of the phosphate/phosphonate ester groups influences the photophysical properties of the compounds.

[5] = in solution; cited from earlier work
[6] = phosphate buffer 0.1M pH 7 containing 0.1% BSA, excitation 600 nm

Compound: CN1C(=CC=C2CCCC(C=CC3=[N+](C)c4ccccc4C3(C)C)=C2Cl)C(C)(C)c2ccccc21.[O-][Cl+3]([O-])([O-])[O-] [IR-786]
solubility [1]: less than 10 μM

passes through the cell membrane and labels an intracellular protein ([2]; intact CHO-K1 cells): not the case
Compound: CCN1/C(=C/C=C/C=C/C2=[N+](CC)c3ccc(S(=O)(=O)[O-])cc3C2(C)C)C(C)(CCCC(=O)NCc2ccc(COc3nc(N)nc4[nH]cnc34)cc2)c2cc(S(=O)(=O)O)ccc21 (stereo not shown) [BG-DY647]
percentage of intracellular labeling (signal at 665 nm passive labeling / total labeling) ([2]; CHO-K1, HTRF with anti-GST-EuTBP, FIG. 2): penetrates poorly into cells
passage through the plasma membrane of the cells (intracellular fluorescence) [3]: have not passed through the plasma membrane

Compound: 2-{(1E,3E,5E)-5-[3-(5-Carboxypentyl)-3-methyl-4-ethyl-5-phosphono-1,3-dihydro-2H-indol-2-ylidene]penta-1,3-dienyl}-5-phosphono-3,3-dimethyl-1-(4-ethyl)-3H-indolium [compound 19]
Emission (max) [4, 6]: 670.5 nm
quantum yield [4, 6]: 13%
Wavelength of max. absorption ([4]; phosphonate (hydrolyzed) form): 649 nm
Wavelength of max. emission ([4]; phosphonate (hydrolyzed) form): 670 nm
quantum yield ([4]; phosphonate (hydrolyzed) form): 13%

Compound: CC1(C)C(/C=C/C=C/C=C/C=C2\N(CCCCS(=O)(=O)O)c3ccc4ccccc4c3C2(C)C)=[N+](CCCCS(=O)(=O)[O-])c2ccc3ccccc3c21 [indocyanine green]
concentration above which quantum yield falls due to formation of aggregates [5]: greater than 125 μM
